Source: patent publication US12409174B2, “Combination of zibotentan and dapagliflozin for the treatment of endothelin related diseases” (priority 2020, dated 2025)

Columns and labels:
[1] = Zibotentan and dapagliflozin blood concentrations, Experiment 2; conditions: male, Wistar, rat, Exp 2; for concentration at 4 h: 4 hr post first dose
Method: (§1) In the second experiment (Experiment 2), the effect of zibotentan and dapagliflozin (alone or in combination) on Hct concentration and Hb was determined. Seventy-two animals were randomized on BW and Hct concentration, 2 to 3 days prior to administration of study drugs into the following groups; 1) Vehicle, 2) Zibotentan (30 mg/kg), 3) Zibotentan (100 mg/kg), 4) Dapagliflozin (3 mg/kg), 5) Zibotentan (30 mg/kg)+Dapagliflozin (3 mg/kg) and 6) Zibotentan (100 mg/kg)+Dapagliflozin (3 mg/kg). For practical reasons, the study was conducted in two consecutive slots with 36 animals (6/group) in each slot. Compounds were administered p.o. QD for seven days. Blood samples for bioanalysis were collected at 4 and 24 hr after the first dose and 24 hr after the final dose for Hct concentration and Hb analysis on day three and seven as described for exp.1. Twenty-four hour urine was collected between the third and fourth dose. 24 hr food and water intake was measured between day 2-3 and between day 6-7. With two animals per cage, food intake and water intake per animal in a cage was assessed by dividing the food intake and water intake of a cage by two.
The blood and urine concentrations of zibotentan and dapagliflozin were determined by a bioanalytical method using liquid chromatography with mass spectrometric detection (LC-MS/MS).
Whole blood samples for bioanalysis of dapagliflozin and zibotentan followed the same procedure. A volume of 20 μL whole blood was precipitated with 150 μL acetonitrile containing internal standard and quickly vortexed, followed by a 20 min centrifugation at 3220 g and 4° C. The supernatant was transferred to a fresh deep well plate and diluted 1:1 with water prior to LC-MS analysis. Matrix matched calibration samples and blanks were treated in the same way as study samples. Zibotentan samples were further diluted twice and three times at a 1:10 ratio with 33% acetonitrile, to ensure all diluted samples were detectible within the calibration range.
Sample concentrations were determined against matrix-spiked calibration standards over a range of 0.010 μM-10.0 μM for dapagliflozin and 0.75 μM-376 μM for zibotentan, applying weighted linear regression (1/X^2) using Waters TargetLynx software version XS V4.2 SCN986.
Samples were analyzed by using reversed-phase high-pressure liquid chromatography with rapid gradient elution. Compounds were detected with Waters Xevo TQ-S triple quadrupole mass spectrometer (Waters Corporation, Milford, MA, USA). The chromatographic separation was performed by an ACQUITY BEH C18 1.8 μM, 2.1×50 mm column at a temperature of 40° C. Mobile phase A was 2% acetonitrile and 0.2% formic acid in water (A), and mobile phase B was 0.2% formic acid in acetonitrile (B). Separation was achieved using the following elution gradient: 0 min to 1.5 min, 4% B ramping up to 95% B; 1.5 min to 2.3 min, kept at 95% B; 2.3 min to 2.4 min, 95% B to 4% B and kept at 4% B until 2.7 min. The flow rate was 0.7 mL/min.
Samples were analyzed by reversed-phase high-pressure liquid chromatography with rapid gradient elution. Compounds were detected with Waters Xevo TQ-S triple quadrupole mass spectrometer (Waters Corporation, Milford, MA, USA). Mobile phase A was 1M ammonium acetate/acetonitrile/water (0.1/2/97.5, v/v/v), and mobile phase B was 1M ammonium acetate/acetonitrile (0.1/99.5, v/v). Separation was performed by an ACQUITY BEH C18 1.8 μM, 2.1×50 mm column from Waters using the following gradient: 0 min to 2.5 min, 4% B ramping to 60% B; 2.5 min to 2.9 min, 60% B to 95% B; 2.9 min to 3.4 min kept at 95% B, and from 3.4 to 3.5 min mobile phase B was returned to 4% B and kept at 4% B until 4 min. The flow rate was 0.6 mL/min and column temperature was 40° C.

[2] = system: male Wistar rats fed a 4% salt diet; test: Effect on plasma Na, K, glucose, urea and creatinine concentration, Experiment 2; conditions: Exp 2
Method: as §1
Plasma and Urine Albumin, Creatinine, Glucose, Urea, Potassium and Sodium levels were analyzed using an ABX Pentra 400 instrument (Horiba Medical, Irvine, California, USA) according to the manufacturers protocol.
(§2) The data for each feature measured was checked for a normal distribution and where appropriate a log transformation was applied to data with a non-normal distribution using R. Since the data were grouped by one factor Zibotentin doses or combined therapy, a one-way ANOVA was used to analyse traits measured at a single time point (GraphPad version 8 or R statistics package emmeans) and a linear mixed effects model (nlme package) in R was used to analyse multiple measures data for body weight. The differences between groups were tested using either a Dunnett test (emmeans package in R or GraphPad v8) when comparing treated groups to the vehicle group or a Tukey comparison (emmeans package in R or Graphpad v8.) for specific pairwise comparisons of treated groups. All model assumptions were checked using the model diagnostic plots in R statistics. Results are expressed as the Mean±standard error of the Mean (SEM) for pharmacodynamic parameters and Mean±standard deviation (SD) for compound concentration in blood and urine. Significance was set at p<0.05.

[3] = system: male Wistar rats fed a 4% salt diet; test: Effect of zibotentan, dapagliflozin and the combination on Hct, Experiment 2; format: in vivo; design: key to Hct levels, difference in means (estimate): difference in log-transformed Hct means, treated minus vehicle; Hct levels, Difference / Difference in Hct means: unit not given here; conditions: Exp 2; for Difference in Hct means: all time points; for Hct levels, difference in means (estimate): log scale
Method: as §1
For Hct and Hb analysis, 100 μl of blood from rat's tail vein was collected and measured using CG8 cartridges analysed with an iSTAT instrument (Abbott Point of Care Inc, Abbot Park, IL, USA).
as §2
The Hct data were analysed using a linear mixed effects model to estimate the marginal means and standard deviations within the vehicle and treated groups estimated at day 3, day 7 and overall for the entire study for post hoc comparisons. Treatment groups were compared to the vehicle to determine whether there were effects on Hct compared to the vehicle treated control group (Dunnett test), and the zibotentan treated groups were compared to zibotentan plus dapagliflozin groups (using a Tukey test) to determine if the combined therapy mitigated the effect of zibotentan on Hct.

[4] = Amount of dapagliflozin and zibotentan excreted in urine, Experiment 2; conditions: Exp 2, urine collected between days 3 and 4
Method: as §1

## CCOc1ccc(Cc2cc([C@@H]3O[C@H](CO)[C@@H](O)[C@H](O)[C@H]3O)ccc2Cl)cc1 [Dapa, (1S)-1,5-anhydro-1-{4-chloro-3-[(4-ethoxyphenyl)methyl]phenyl}-D-glucitol]
[1]; whole blood, oral, 3 mg/kg, Dapagliflozin blood concentration, Dapa 3 mg/kg p.o. QD 7 days, 24 hr post last dose
  concentration at 24 h: 0.048 µM
[1]; whole blood, oral, 3 mg/kg, Dapagliflozin blood concentration, Dapa 3 mg/kg p.o. QD
  concentration at 4 h: 1.94 µM
[1]; whole blood, oral, 3 mg/kg, Dapagliflozin blood concentration, Dapa 3 mg/kg p.o. QD, 24 hr post first dose
  concentration at 24 h: 0.086 µM
[2]
  Plasma Na, K, glucose, urea concentrations compared to vehicle: unaltered
[2]; Dapa 3 mg/kg p.o. QD 7 days
  Plasma Creatinine: 14.62 µM
  Plasma Glucose: 8.98 mmol/L
  Plasma K: 3.68 mmol/L
  Plasma Na: 137.6 mmol/L
  Plasma Urea: 4.34 mmol/L
[3]; Dapa 3 mg/kg vs Vehicle
  Difference in Hct means: 0.01
[3]; day 3, Dapa 3.0 mg/kg vs Vehicle
  Hct levels, difference in means (estimate): 0.03
[3]; day 7, Dapa 3.0 mg/kg vs Vehicle
  Hct levels, Difference: 0.01
[4]; Dapa 3 mg/kg p.o. QD
  Amount of dapagliflozin excreted in urine: 0.198 µmol

## COc1nc(C)cnc1NS(=O)(=O)c1cccnc1-c1ccc(-c2nnco2)cc1 [Zibo, N-(3-methoxy-5-methylpyrazin-2-yl)-2-[4-(1,3,4-oxadiazol-2-yl)phenyl]pyridine-3-sulfonamide]
[1]; in vivo, 30 mg/kg, Zibotentan blood concentration, Zibo 30 mg/kg p.o. QD 7 days, 24 hr post last dose
  concentration at 24 h: 22.9 µM
[1]; in vivo, 30 mg/kg, Zibotentan blood concentration, Zibo 30 mg/kg p.o. QD
  concentration at 4 h: 61.1 µM
[1]; in vivo, 30 mg/kg, Zibotentan blood concentration, Zibo 30 mg/kg p.o. QD, 24 hr post first dose
  concentration at 24 h: 7.8 µM
[1]; in vivo, 100 mg/kg, Zibotentan blood concentration, Zibo 100 mg/kg p.o. QD 7 days, 24 hr post last dose
  concentration at 24 h: 136 µM
[1]; in vivo, 100 mg/kg, Zibotentan blood concentration, Zibo 100 mg/kg p.o. QD
  concentration at 4 h: 161 µM
[1]; in vivo, 100 mg/kg, Zibotentan blood concentration, Zibo 100 mg/kg p.o. QD, 24 hr post first dose
  concentration at 24 h: 63.9 µM
[2]
  Plasma Na, K, glucose, urea concentrations compared to vehicle: unaltered
[2]; Zibo 30 mg/kg p.o. QD 7 days
  Plasma Creatinine: 17.58 µM
  Plasma Glucose: 8.96 mmol/L
  Plasma K: 4.17 mmol/L
  Plasma Na: 139.1 mmol/L
  Plasma Urea: 4.47 mmol/L
[2]; Zibo 100 mg/kg monotreatment or in combination with Dapa 3 mg/kg, p<0.05
  Plasma creatinine compared to vehicle: significantly increase
[2]; Zibo 100 mg/kg p.o. QD 7 days
  Plasma Creatinine: 18.08 µM
  Plasma Glucose: 8.73 mmol/L
  Plasma K: 4.13 mmol/L
  Plasma Na: 138.4 mmol/L
  Plasma Urea: 4.25 mmol/L
[3]; Zibo 30 mg/kg vs Vehicle
  Difference in Hct means: −0.05
[3]; Zibo 100 mg/kg vs Vehicle
  Difference in Hct means: −0.06
[3]; day 3, Zibo 30 mg/kg vs Vehicle
  Hct levels, difference in means (estimate): −0.10
[3]; day 3, Zibo 100 mg/kg vs Vehicle
  Hct levels, difference in means (estimate): −0.08
[3]; day 3, zibotentan 30 and 100 mg/kg with or without dapagliflozin 3 mg/kg
  Hct compared to vehicle: decreased
[3]; day 7, Zibo 30 mg/kg vs Vehicle
  Hct levels, Difference: −0.06
[3]; day 7, Zibo 100 mg/kg vs Vehicle
  Hct levels, Difference: −0.08
[3]; day 7, zibotentan 30 and 100 mg/kg alone
  Hct compared to vehicle: decreased
[3]; zibotentan 100 mg/kg alone, 7 days, one way ANOVA, Tukey
  Effect on Hct concentration: −4.00±0.87
[3]; zibotentan 30 or 100 mg/kg, 7 days administration
  Hct concentration: significantly decreased
[4]; Zibo 30 mg/kg p.o. QD
  Amount of zibotentan excreted in urine: 2.17 µmol
[4]; Zibo 100 mg/kg p.o. QD
  Amount of zibotentan excreted in urine: 3.21 µmol
